≈ marks a conversion by molar mass, not a printed value.
Legend:
Type in all cases: cell-based
Candida albicans = test: Antifungal activity, minimum growth inhibition concentration (MIC), Candida albicans; details: Sabouraud dextrose agar, 27° C., 2 to 4 days
Experimental: (§1) The minimum growth inhibition concentrations (MIC) of the present substances against eumycetes are as tabulated below.
(§2) Culture medium: Sabouraud dextrose agar
(§3) Culturing conditions: 27° C., 2 to 4 days

Aspergillus fumigatus = test: Antifungal activity, minimum growth inhibition concentration (MIC), Aspergillus fumigatus; details: Sabouraud dextrose agar, 27° C., 2 to 4 days
Experimental: as §1, §2, §3

Cryptococcus neoformans = test: Antifungal activity, minimum growth inhibition concentration (MIC), Cryptococcus neoformans; details: Sabouraud dextrose agar, 27° C., 2 to 4 days
Experimental: as §1, §2, §3

[1] = test system: Trichophyton mentagraphytes; test: Antifungal activity, minimum growth inhibition concentration (MIC), Trichophyton mentagraphytes
Experimental: as §1, §2, §3

Trichophyton rubrum = test: Antifungal activity, minimum growth inhibition concentration (MIC), Trichophyton rubrum; details: Sabouraud dextrose agar, 27° C., 2 to 4 days
Experimental: as §1, §2, §3

| Compound | MIC (Candida albicans) [µg/mL] | MIC (Aspergillus fumigatus) [µg/mL] | MIC (Cryptococcus neoformans) [µg/mL] | MIC [1] [µg/mL] | MIC (Trichophyton rubrum) [µg/mL] |
| --- | --- | --- | --- | --- | --- |
| CCCCC=C[N+]([O-])=NC(C)C(C)=O (stereo not shown) [KA-7367A] | 1.6 (≈ 8.07 µM) | 6.25 (≈ 31.5 µM) | 3.2 (≈ 16.1 µM) | 6.25 (≈ 31.5 µM) | 3.2 (≈ 16.1 µM) |
| CCCCC=C[N+]([O-])=NC(C)C(C)O (stereo not shown) [KA-7367B] | 50 (≈ 250 µM) | 100 (≈ 499 µM) | 100 (≈ 499 µM) | 100 (≈ 499 µM) | 100 (≈ 499 µM) |

Reference: patent US4981954A, “Novel azoxy compounds and process for production thereof” (Kowa Company, Ltd., priority 1987, dated 1991)
